# Reference: ChEMBL document CHEMBL4118085, “Plasma Kallikrein Inhibitors for the Treatment of Retinal Vascular Permeability Associated with Diabetic Retinopathy and Diabetic Macular Edema” (ACS Med Chem Lett, 2017)
# pIC50: −log10 of the molar value.
# Biological target: Plasma kallikrein (Homo sapiens, UniProt P03952)
# Assay: Inhibition of human plasma kallikrein using H-Pro-Phe-Arg-AMC as substrate after 1 hr by fluorescence assay
# Chain of Plasma kallikrein (P03952 20-390 limits assumed): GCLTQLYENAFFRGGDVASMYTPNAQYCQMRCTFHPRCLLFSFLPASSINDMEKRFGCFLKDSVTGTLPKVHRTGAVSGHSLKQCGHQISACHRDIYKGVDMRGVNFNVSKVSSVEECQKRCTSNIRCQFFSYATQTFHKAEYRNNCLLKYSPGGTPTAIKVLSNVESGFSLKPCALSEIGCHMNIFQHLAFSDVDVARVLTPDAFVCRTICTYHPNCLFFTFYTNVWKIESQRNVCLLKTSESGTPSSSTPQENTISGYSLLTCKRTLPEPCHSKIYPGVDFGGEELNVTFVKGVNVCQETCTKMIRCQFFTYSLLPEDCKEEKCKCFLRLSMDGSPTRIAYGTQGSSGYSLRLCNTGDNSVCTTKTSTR
# Chain of Plasma kallikrein (P03952 391-638 limits assumed): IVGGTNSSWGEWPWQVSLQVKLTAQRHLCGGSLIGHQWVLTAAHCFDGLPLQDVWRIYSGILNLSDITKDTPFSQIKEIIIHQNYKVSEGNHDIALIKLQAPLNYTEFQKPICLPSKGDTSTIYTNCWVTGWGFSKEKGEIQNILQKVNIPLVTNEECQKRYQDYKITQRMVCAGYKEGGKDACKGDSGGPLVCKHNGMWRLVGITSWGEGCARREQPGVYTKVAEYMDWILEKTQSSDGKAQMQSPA
row,pIC50,SMILES
1,5.72,Cc1ccc2cc(Cn3cc(C(=O)N[C@H]4CCc5nc(N)ccc54)nn3)ccc2n1
2,8.40,Cc1cc(N)nc2c1C(NC(=O)c1cnn(Cc3ccc(Cn4ccccc4=O)cc3)c1)CC2 (stereo not given)
3,8.05,Nc1ccc2c(n1)CCC2NC(=O)c1cnn(Cc2ccc(Cn3ccccc3=O)cc2)c1 (stereo not given)
4,9.00,Cc1cnn(Cc2ccc(Cn3nc(C(=O)N[C@@H]4CCc5c4ccnc5N)cc3C(F)(F)F)cc2)c1

row,SMILES,pIC50
1,C[C@H]1CCN(c2ccc(Cn3cc(C(=O)N[C@@H]4CCc5nc(N)ccc54)cn3)cn2)C1,7.72
